Source: ChEMBL document CHEMBL1132242, “Stereoselective characterization of the 1,4-dihydropyridine binding site at L-type calcium channels in the resting state and the opened/inactivated state” (J Med Chem, 1999)
“And” between values parts separate entries of the source, which are not always exact repeats. Equal entries are not always repeated.

Legend:
[1] = molecular target: T1, Voltage-gated L-type calcium channel (Homo sapiens, UniProt Q13936+Q13698+Q01668+O60840); experiment: Free energy of binding (delta G) for inactivated state (is) of voltage-gated L-type [Ca2+] channel(VGCCs); type: protein assay
[2] = molecular target: T1, Voltage-gated L-type calcium channel; experiment: Evaluated for the free energies of binding (delta G) (in the resting state (rs) of voltage-gated L-type [Ca2+] channel (VGCCs)); type: protein assay
[3] = molecular target: T1, Voltage-gated L-type calcium channel; experiment: Difference in free energies of binding (delta G) in the Resting state (rs) and inactivated state (is) of voltage-gated L-type [Ca2+] channel(VGCCs); type: protein assay
[4] = molecular target: T1, Voltage-gated L-type calcium channel; experiment: Free energies of binding(delta G)in inactivated state (is) of voltage-gated L-type [Ca2+] channel(VGCCs); type: protein assay
[5] = molecular target: T1, Voltage-gated L-type calcium channel; experiment: Free energies of binding (delta G) in the Resting state (rs) of voltage-gated L-type [Ca2+] channel(VGCCs); type: protein assay

COC(=O)C1=C(C)NC(C)=C(C(=O)OC)C1c1ccccc1
Delta Gsolv: -8.706 kcal/mol and -9.458 kcal/mol | Binding energy [1]: -10.387 kcal/M | Binding energy [2]: -8.58 kcal/M and -10.707 kcal/M

COC(=O)C1=C(C)N=C(C)/C(=C(\O)OC)C1c1cccc(C)c1 (stereo not drawn)
Delta Gsolv: -8.407 kcal/mol | Binding energy [2]: -9.93 kcal/M

COC(=O)C1=C(C)N=C(C)/C(=C(\O)OC)C1c1c(F)c(F)c(F)c(F)c1F (stereo not drawn)
Delta Gsolv: -9.442 kcal/mol | Binding energy [2]: -14.145 kcal/M

COC(=O)C1=C(C)N=C(C)/C(=C(\O)OC)C1c1ccc(C)cc1 (stereo not drawn)
Delta Gsolv: -8.19 kcal/mol | Binding energy [2]: -9.79 kcal/M

COC(=O)C1=C(C)N=C(C)/C(=C(\O)OC)C1c1cccc(F)c1 (stereo not drawn)
Delta Gsolv: -9.56 kcal/mol | Binding energy [2]: -11.58 kcal/M

COC(=O)C1=C(C)N=C(C)/C(=C(\O)OC)C1c1ccccc1I (stereo not drawn)
Delta Gsolv: -9.18 kcal/mol | Binding energy [2]: -14.731 kcal/M

COC(=O)C1=C(C)N=C(C)/C(=C(\O)OC)C1c1ccccc1C#N (stereo not drawn)
Delta Gsolv: -9.74 kcal/mol | Binding energy [2]: -12.522 kcal/M

COC(=O)C1=C(C)N=C(C)/C(=C(\O)OC)C1c1ccc(F)cc1 (stereo not drawn)
Delta Gsolv: -9.427 kcal/mol | Binding energy [2]: -10.175 kcal/M

COC(=O)C1=C(C)N=C(C)/C(=C(\O)OC)C1c1ccccc1OC (stereo not drawn)
Delta Gsolv: -10.468 kcal/mol | Binding energy [2]: -10.735 kcal/M

COC(=O)C1=C(C)NC(C)=C([N+](=O)[O-])C1c1ccccc1OC(F)F (stereo not drawn)
Delta Gsolv: -14.696 kcal/mol | Binding energy [1]: -10.474 kcal/M | Binding energy [2]: -9.571 kcal/M

COC(=O)C1=C(C)N=C(C)/C(=C(/O)OC)C1c1cccc(Cl)c1 (stereo not drawn)
Delta Gsolv: -8.94 kcal/mol | Binding energy [2]: -12.685 kcal/M

COC(=O)C1=C(C)N=C(C)/C(=C(\O)OC)C1c1ccccc1F (stereo not drawn)
Delta Gsolv: -9.804 kcal/mol | Binding energy [2]: -11.512 kcal/M

COC(=O)C1=C(C)N=C(C)/C(=C(\O)OC)C1c1ccccc1C (stereo not drawn)
Delta Gsolv: -7.993 kcal/mol | Binding energy [2]: -11.88 kcal/M

COC(=O)C1=C(C)N=C(C)/C(=C(\O)OC)C1c1ccccc1Cl (stereo not drawn)
Delta Gsolv: -9.26 kcal/mol | Binding energy [2]: -13.34 kcal/M

COC(=O)C1=C(C)N=C(C)/C(=C(\O)OC)C1c1ccccc1Br (stereo not drawn)
Delta Gsolv: -9.256 kcal/mol | Binding energy [2]: -14.308 kcal/M

CO/C(O)=C1\C(C)=NC(C)=C([N+](=O)[O-])C1c1ccccc1OC(F)F (stereo not drawn)
Delta Gsolv: -14.543 kcal/mol | Binding energy [1]: -10.564 kcal/M | Binding energy [2]: -9.26 kcal/M

CC1=C([N+](=O)[O-])C(c2ccccc2C(F)(F)F)C([N+](=O)[O-])=C(C)N1
Delta Gsolv: -17.275 kcal/mol | Binding energy [3]: -0.85 kcal/M | Binding energy [1]: -9.11 kcal/M | Binding energy [2]: -8.256 kcal/M

CC1=C([N+](=O)[O-])C(c2ccccc2OC(F)F)C([N+](=O)[O-])=C(C)N1
Delta Gsolv: -16.994 kcal/mol | Binding energy [1]: -8.66 kcal/M | Binding energy [2]: -7.82 kcal/M

COC(=O)C1=C(C)NC(C)=C([N+](=O)[O-])C1c1ccccc1C(F)(F)F (stereo in doubt; form 1)
Delta Gsolv: -13.929 kcal/mol | Binding energy [3]: -1.5 kcal/M | Binding energy [1]: -10.296 kcal/M | Binding energy [2]: -8.8 kcal/M

COC(=O)C1=C(C)N=C(C)/C(=C(\O)OC)C1c1cccc(C#N)c1 (stereo in doubt; form 1)
Delta Gsolv: -10.743 kcal/mol | Binding energy [1]: -12.108 kcal/M | Binding energy [2]: -9.71 kcal/M

COC(=O)C1=C(C)N=C(C)/C(=C(\O)OC)C1c1cccc(OC)c1 (stereo in doubt; form 1)
Delta Gsolv: -9.847 kcal/mol | Binding energy [2]: -9.916 kcal/M

COC(=O)C1=C(C)N=C(C)/C(=C(\O)OC)C1c1ccc(Cl)cc1 (stereo in doubt; form 1)
Delta Gsolv: -9.2 kcal/mol | Binding energy [1]: -8.964 kcal/M | Binding energy [2]: -8.209 kcal/M

CC1=CC(c2ccccc2C(F)(F)F)C([N+](=O)[O-])=C(C)N1 (stereo in doubt; form 1)
Delta Gsolv: -10.313 kcal/mol | Binding energy [3]: -0.66 kcal/M | Binding energy [2]: -6.967 kcal/M | Binding energy [4]: -7.634 kcal/M

CC1=CC(c2ccccc2OC(F)F)C([N+](=O)[O-])=C(C)N1 (stereo in doubt; form 1)
Delta Gsolv: -11.269 kcal/mol | Binding energy [1]: -7.783 kcal/M | Binding energy [2]: -7.422 kcal/M

COC(=O)C1=C(C)NC(C)=C([N+](=O)[O-])C1c1ccccc1C(F)(F)F (stereo in doubt; form 2)
Delta Gsolv: -14.15 kcal/mol | Binding energy [3]: -0.94 kcal/M | Binding energy [1]: -10.641 kcal/M | Binding energy [2]: -9.7 kcal/M

COC(=O)C1=C(C)N=C(C)/C(=C(\O)OC)C1c1cccc(C#N)c1 (stereo in doubt; form 2)
Delta Gsolv: -10.65 kcal/mol | Binding energy [2]: -11.84 kcal/M

COC(=O)C1=C(C)N=C(C)/C(=C(\O)OC)C1c1cccc(OC)c1 (stereo in doubt; form 2)
Delta Gsolv: -9.756 kcal/mol | Binding energy [1]: -8.461 kcal/M | Binding energy [2]: -7.819 kcal/M

COC(=O)C1=C(C)N=C(C)/C(=C(\O)OC)C1c1ccc(Cl)cc1 (stereo in doubt; form 2)
Delta Gsolv: -8.79 kcal/mol | Binding energy [2]: -7.666 kcal/M

CC1=CC(c2ccccc2C(F)(F)F)C([N+](=O)[O-])=C(C)N1 (stereo in doubt; form 2)
Delta Gsolv: -10.33 kcal/mol | Binding energy [3]: -0.38 kcal/M | Binding energy [1]: -7.74 kcal/M | Binding energy [2]: -7.36 kcal/mol

CC1=CC(c2ccccc2OC(F)F)C([N+](=O)[O-])=C(C)N1 (stereo in doubt; form 2)
Delta Gsolv: -10.096 kcal/mol | Binding energy [1]: -8.28 kcal/M | Binding energy [2]: -7.86 kcal/M

COC(=O)C1=C(C)NC(C)=C(C(=O)OC)C1c1ccccc1[N+](=O)[O-] [NIFEDIPINE]
Delta Gsolv: -14.117 kcal/mol and -14.198 kcal/mol | Binding energy [5]: -10.502 kcal/M | Binding energy [1]: -13.184 kcal/M | Binding energy [2]: -12.385 kcal/M
